How the values were obtained:
Type in all cases: cell-based
[1] = test system: ATCC9027 strain (Pseudomonas aeruginosa); experiment: Broth microdilution, antibacterial activity of the compound used alone
Description: (§1) The broth microdilution method was used to test the antibacterial effects of the compounds of the present invention against various Gram-negative bacterial strains when used alone.

[2] = test system: ATCC13883 strain (Klebsiella pneumoniae); experiment: as above
Description: as §1

[3] = test system: ATCC19606 strain (Acinetobacter baumannii); experiment: as above
Description: as §1

[4] = test system: ATCC25922 strain (Escherichia coli); experiment: as above
Description: as §1

[5] = test system: ATCC9027 strain (Pseudomonas aeruginosa); experiment: Checkerboard antibacterial synergistic activity test with polymyxin E (FIC); parameters: key: FIC≤0.5 synergy; 0.5–1 additive; 1–2 indifferent; ≥2 antagonism; conditions: combined with polymyxin E
How it was run: (§2)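 Polymyxin E was diluted in MH broth to 16–0.015 μg/ml and the test compound to 256–4 μg/ml (two-fold series, pre-mixing concentrations), combined checkerboard-style in 96-well plates with bacterial suspension and blank controls, and incubated at 37° C. for 16 h. FIC ≤0.5 was scored synergistic, >0.5 to <1 additive, 1–2 indifferent, ≥2 antagonistic.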

[6] = test system: ATCC13883 strain (Klebsiella pneumoniae); experiment: as above; parameters: key: FIC≤0.5 synergy; 0.5–1 additive; 1–2 indifferent; ≥2 antagonism; conditions: combined with polymyxin E
How it was run: as §2

[7] = test system: ATCC19606 strain (Acinetobacter baumannii); experiment: as above; parameters: key: FIC≤0.5 synergy; 0.5–1 additive; 1–2 indifferent; ≥2 antagonism; conditions: combined with polymyxin E
How it was run: as §2

[8] = test system: ATCC25922 strain (Escherichia coli); experiment: as above; parameters: key: FIC≤0.5 synergy; 0.5–1 additive; 1–2 indifferent; ≥2 antagonism; conditions: combined with polymyxin E
How it was run: as §2

Compound: Clc1cc(Cl)cc(-c2csc(N=C3NCCCN3)n2)c1 [Compound I-187]
- Antibacterial activity of the compound of Formula I, ATCC9027 [1]: 64 µg/mL
- Antibacterial activity of the compound of Formula I, ATCC13883 [2]: 128 µg/mL
- Antibacterial activity of the compound of Formula I, ATCC19606 [3]: 256 µg/mL
- Antibacterial activity of the compound of Formula I, ATCC25922 [4]: 128 µg/mL
- Synergistic activity (FIC value) ATCC9027 [5]: 0.5
- Synergistic activity (FIC value) ATCC13883 [6]: 0.31
- Synergistic activity (FIC value) ATCC19606 [7]: 0.25
- Synergistic activity (FIC value) ATCC25922 [8]: 0.56

Compound: Oc1c(Cl)cc(-c2csc(N=C3NCCCN3)n2)cc1Cl [Compound I-188]
- Antibacterial activity of the compound of Formula I, ATCC9027 [1]: 256 µg/mL
- Antibacterial activity of the compound of Formula I, ATCC13883 [2]: 256 µg/mL
- Antibacterial activity of the compound of Formula I, ATCC19606 [3]: 256 µg/mL
- Antibacterial activity of the compound of Formula I, ATCC25922 [4]: 256 µg/mL
- Synergistic activity (FIC value) ATCC9027 [5]: 0.52
- Synergistic activity (FIC value) ATCC13883 [6]: 1.25
- Synergistic activity (FIC value) ATCC19606 [7]: 0.25
- Synergistic activity (FIC value) ATCC25922 [8]: 1.25

Compound: c1ccn2c(-c3coc(N=C4NCCCN4)n3)ccc2c1 [Compound I-189]
- Antibacterial activity of the compound of Formula I, ATCC9027 [1]: 256 µg/mL
- Antibacterial activity of the compound of Formula I, ATCC13883 [2]: 256 µg/mL
- Antibacterial activity of the compound of Formula I, ATCC19606 [3]: 256 µg/mL
- Antibacterial activity of the compound of Formula I, ATCC25922 [4]: 256 µg/mL
- Synergistic activity (FIC value) ATCC9027 [5]: 0.63
- Synergistic activity (FIC value) ATCC13883 [6]: 0.25
- Synergistic activity (FIC value) ATCC19606 [7]: 0.28
- Synergistic activity (FIC value) ATCC25922 [8]: 0.5

Compound: CSc1cc2ccccn2c1-c1c[nH]c(N=C2NCCCN2)n1 [Compound I-190]
- Antibacterial activity of the compound of Formula I, ATCC9027 [1]: 256 µg/mL
- Antibacterial activity of the compound of Formula I, ATCC13883 [2]: 256 µg/mL
- Antibacterial activity of the compound of Formula I, ATCC19606 [3]: 256 µg/mL
- Antibacterial activity of the compound of Formula I, ATCC25922 [4]: 256 µg/mL
- Synergistic activity (FIC value) ATCC9027 [5]: 1.25
- Synergistic activity (FIC value) ATCC13883 [6]: 1.25
- Synergistic activity (FIC value) ATCC19606 [7]: 0.75
- Synergistic activity (FIC value) ATCC25922 [8]: 1.25

Compound: CSc1cc2c(C)cccn2c1-c1c[se]c(N=C2NCCCN2)n1 [Compound I-191]
- Antibacterial activity of the compound of Formula I, ATCC9027 [1]: 256 µg/mL
- Antibacterial activity of the compound of Formula I, ATCC13883 [2]: 256 µg/mL
- Antibacterial activity of the compound of Formula I, ATCC19606 [3]: 256 µg/mL
- Antibacterial activity of the compound of Formula I, ATCC25922 [4]: 256 µg/mL
- Synergistic activity (FIC value) ATCC9027 [5]: 0.51
- Synergistic activity (FIC value) ATCC13883 [6]: 0.19
- Synergistic activity (FIC value) ATCC19606 [7]: 0.13
- Synergistic activity (FIC value) ATCC25922 [8]: 0.52

Compound: CSc1cc2cc(C)ccn2c1-c1coc(N=C2NCCCN2)n1 [Compound I-192]
- Antibacterial activity of the compound of Formula I, ATCC9027 [1]: 256 µg/mL
- Antibacterial activity of the compound of Formula I, ATCC13883 [2]: 256 µg/mL
- Antibacterial activity of the compound of Formula I, ATCC19606 [3]: 256 µg/mL
- Antibacterial activity of the compound of Formula I, ATCC25922 [4]: 256 µg/mL
- Synergistic activity (FIC value) ATCC9027 [5]: 0.63
- Synergistic activity (FIC value) ATCC13883 [6]: 0.38
- Synergistic activity (FIC value) ATCC19606 [7]: 0.5
- Synergistic activity (FIC value) ATCC25922 [8]: 0.38

Compound: CCc1sc(N=C2NCCCN2)nc1-c1c(SC)cc2ccc(C)cn12 [Compound I-193]
- Antibacterial activity of the compound of Formula I, ATCC9027 [1]: 256 µg/mL
- Antibacterial activity of the compound of Formula I, ATCC13883 [2]: 256 µg/mL
- Antibacterial activity of the compound of Formula I, ATCC19606 [3]: 256 µg/mL
- Antibacterial activity of the compound of Formula I, ATCC25922 [4]: 256 µg/mL
- Synergistic activity (FIC value) ATCC9027 [5]: 1.25
- Synergistic activity (FIC value) ATCC13883 [6]: 1.25
- Synergistic activity (FIC value) ATCC19606 [7]: 1.25
- Synergistic activity (FIC value) ATCC25922 [8]: 0.53

Compound: CSc1cc2cccc(C)n2c1-c1csc(N=C2NCCCN2)n1 [Compound I-194]
- Antibacterial activity of the compound of Formula I, ATCC9027 [1]: 64 µg/mL
- Antibacterial activity of the compound of Formula I, ATCC13883 [2]: 128 µg/mL
- Antibacterial activity of the compound of Formula I, ATCC19606 [3]: 256 µg/mL
- Antibacterial activity of the compound of Formula I, ATCC25922 [4]: 128 µg/mL
- Synergistic activity (FIC value) ATCC9027 [5]: 0.63
- Synergistic activity (FIC value) ATCC13883 [6]: 1.25
- Synergistic activity (FIC value) ATCC19606 [7]: 1.25
- Synergistic activity (FIC value) ATCC25922 [8]: 0.5

Compound: CSc1cc2cc(C)cc(C)n2c1-c1nc(N=C2NCCCN2)sc1C [Compound I-195]
- Antibacterial activity of the compound of Formula I, ATCC9027 [1]: 256 µg/mL
- Antibacterial activity of the compound of Formula I, ATCC13883 [2]: 256 µg/mL
- Antibacterial activity of the compound of Formula I, ATCC19606 [3]: 256 µg/mL
- Antibacterial activity of the compound of Formula I, ATCC25922 [4]: 256 µg/mL
- Synergistic activity (FIC value) ATCC9027 [5]: 0.52
- Synergistic activity (FIC value) ATCC13883 [6]: 0.25
- Synergistic activity (FIC value) ATCC19606 [7]: 0.14
- Synergistic activity (FIC value) ATCC25922 [8]: 0.31

Compound: CSc1cc2c(Cl)cccn2c1-c1nc(N=C2NCCCN2)sc1Cl [Compound I-196]
- Antibacterial activity of the compound of Formula I, ATCC9027 [1]: 256 µg/mL
- Antibacterial activity of the compound of Formula I, ATCC13883 [2]: 256 µg/mL
- Antibacterial activity of the compound of Formula I, ATCC19606 [3]: 256 µg/mL
- Antibacterial activity of the compound of Formula I, ATCC25922 [4]: 256 µg/mL
- Synergistic activity (FIC value) ATCC9027 [5]: 1.25
- Synergistic activity (FIC value) ATCC13883 [6]: 0.19
- Synergistic activity (FIC value) ATCC19606 [7]: 0.13
- Synergistic activity (FIC value) ATCC25922 [8]: 0.52

Compound: CCc1oc(N=C2NCCCN2)nc1-c1c(SC)cc2cc(Cl)cc(Cl)n12 [Compound I-197]
- Antibacterial activity of the compound of Formula I, ATCC9027 [1]: 256 µg/mL
- Antibacterial activity of the compound of Formula I, ATCC13883 [2]: 256 µg/mL
- Antibacterial activity of the compound of Formula I, ATCC19606 [3]: 256 µg/mL
- Antibacterial activity of the compound of Formula I, ATCC25922 [4]: 256 µg/mL
- Synergistic activity (FIC value) ATCC9027 [5]: 0.52
- Synergistic activity (FIC value) ATCC13883 [6]: 0.25
- Synergistic activity (FIC value) ATCC19606 [7]: 0.31
- Synergistic activity (FIC value) ATCC25922 [8]: 0.27

Compound: O=C(Nc1ccccc1)Nc1cccc(-c2nc(N=C3NCCCN3)sc2Br)c1 [Compound I-198]
- Antibacterial activity of the compound of Formula I, ATCC9027 [1]: 64 µg/mL
- Antibacterial activity of the compound of Formula I, ATCC13883 [2]: 128 µg/mL
- Antibacterial activity of the compound of Formula I, ATCC19606 [3]: 256 µg/mL
- Antibacterial activity of the compound of Formula I, ATCC25922 [4]: 128 µg/mL
- Synergistic activity (FIC value) ATCC9027 [5]: 1.25
- Synergistic activity (FIC value) ATCC13883 [6]: 1.25
- Synergistic activity (FIC value) ATCC19606 [7]: 0.75
- Synergistic activity (FIC value) ATCC25922 [8]: 0.5

Reference: patent publication US20260250257A1, “ANTIBACTERIAL AND SYNERGISTIC ACTIVE COMPOUND AND USE THEREOF” (EAST CHINA UNIVERSITY OF SCIENCE AND TECHNOLOGY, priority 2023, published 2026)
